Test results taken from the supplement of paper PMC10307832.

Assays:
Assay in all cases: relative viability (nuclei count vs DMSO), 5 days (fraction); higher = more cells survive
Bleomycin + Palbociclib = compound: CC1=C(N=C(N=C1N)[C@H](CC(=O)N)NC[C@@H](C(=O)N)N)C(=O)N[C@@H]([C@H](C2=CN=CN2)OC3C(C(C(C(O3)CO)O)O)OC4C(C(C(C(O4)CO)O)OC(=O)N)O)C(=O)N[C@H](C)[C@H]([C@H](C)C(=O)N[C@@H]([C@@H](C)O)C(=O)NCCC5=NC(=CS5)C6=NC(=CS6)C(=O)NCCC[S+](C)C)O [Bleomycin] + CC(=O)c1c(C)c2cnc(Nc3ccc(N4CCNCC4)cn3)nc2n(C2CCCC2)c1=O [Palbociclib] (partner 0.5 µM); details: main component drawn
How it was run: (§1)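 Nuclei were stained with Hoechst during a one-step fixation (final 0.05% Triton X-100, 1% formaldehyde, 1 ug/ml Hoechst) carried out 5 days after dosing, then counted on 4× images. The cells, lung cancer lines in 1536-well plates, had been dosed by pin tool the day after seeding with one drug alone or a fixed anchor-drug dose plus five library-drug doses (not always all listed) in √10 steps. Relative viability is the nuclei count in treated wells divided by that in vehicle wells, and each value is the median of duplicate plates.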

Bleomycin + Crizotinib = compound: CC1=C(N=C(N=C1N)[C@H](CC(=O)N)NC[C@@H](C(=O)N)N)C(=O)N[C@@H]([C@H](C2=CN=CN2)OC3C(C(C(C(O3)CO)O)O)OC4C(C(C(C(O4)CO)O)OC(=O)N)O)C(=O)N[C@H](C)[C@H]([C@H](C)C(=O)N[C@@H]([C@@H](C)O)C(=O)NCCC5=NC(=CS5)C6=NC(=CS6)C(=O)NCCC[S+](C)C)O [Bleomycin] + C[C@@H](Oc1cc(-c2cnn(C3CCNCC3)c2)cnc1N)c1c(Cl)ccc(F)c1Cl [Crizotinib] (partner 1 µM); details: main component drawn
How it was run: as §1

Etoposide + Bortezomib = compound: COc1cc([C@@H]2c3cc4c(cc3[C@@H](O[C@@H]3O[C@@H]5CO[C@@H](C)O[C@H]5[C@H](O)[C@H]3O)[C@H]3COC(=O)[C@H]23)OCO4)cc(OC)c1O [Etoposide] + CC(C)C[C@H](NC(=O)[C@H](Cc1ccccc1)NC(=O)c1cnccn1)B(O)O [Bortezomib] (partner 0.002 µM)
How it was run: as §1

Etoposide + Vorinostat = compound: COc1cc([C@@H]2c3cc4c(cc3[C@@H](O[C@@H]3O[C@@H]5CO[C@@H](C)O[C@H]5[C@H](O)[C@H]3O)[C@H]3COC(=O)[C@H]23)OCO4)cc(OC)c1O [Etoposide] + O=C(CCCCCCC(=O)Nc1ccccc1)NO [Vorinostat] (partner 1 µM)
How it was run: as §1

Cell Line	relative viability (Bleomycin + Palbociclib; first compound 0.01 µM)	relative viability (Bleomycin + Palbociclib; first compound 0.03162 µM)	relative viability (Bleomycin + Palbociclib; first compound 0.1 µM)	relative viability (Bleomycin + Palbociclib; first compound 0.3162 µM)	relative viability (Bleomycin + Palbociclib; first compound 1 µM)	relative viability (Bleomycin + Crizotinib; first compound 0.01 µM)	relative viability (Bleomycin + Crizotinib; first compound 0.03162 µM)	relative viability (Bleomycin + Crizotinib; first compound 0.1 µM)	relative viability (Bleomycin + Crizotinib; first compound 0.3162 µM)	relative viability (Bleomycin + Crizotinib; first compound 1 µM)	relative viability (Etoposide + Bortezomib; first compound 0.01 µM)	relative viability (Etoposide + Bortezomib; first compound 0.03162 µM)	relative viability (Etoposide + Bortezomib; first compound 0.1 µM)	relative viability (Etoposide + Bortezomib; first compound 0.3162 µM)	relative viability (Etoposide + Bortezomib; first compound 1 µM)	relative viability (Etoposide + Vorinostat; first compound 0.03162 µM)	relative viability (Etoposide + Vorinostat; first compound 0.1 µM)	relative viability (Etoposide + Vorinostat; first compound 0.3162 µM)	relative viability (Etoposide + Vorinostat; first compound 1 µM)	relative viability (Etoposide + Vorinostat; first compound 0.01 µM)
NCI-H1993	0.579	0.525	0.535	0.451	0.329	0.629	0.712	0.693	0.678	0.527	0.954	1.12	0.631	0.919	0.473	0.683	0.507	0.718	0.284	
NCI-H2009	0.202	0.164	0.215	0.16	0.192	0.976	1.07	0.991	0.603	0.459	0.975	1.1	0.933	0.628	0.241	0.631	0.571	0.597	0.409	0.704
NCI-H2023	0.333	0.302	0.25	0.125	0.13	0.473	0.447	0.346	0.131	0.104	0.975	1.15	0.456	0.46	0.123	0.626	0.335	0.176	0.0989	0.442
NCI-H2085	0.443	0.455	0.432	0.324	0.355	0.608	0.723	0.671	0.372	0.404	1.08	1.08	0.953	0.674	0.354	0.809	0.635	0.75	0.301	0.762
NCI-H2087	0.222	0.236	0.221	0.118	0.147	0.617	0.771	0.735	0.303	0.274		0.888	0.864	0.641	0.302	0.975	0.641	0.524	0.23	1.08
NCI-H2126	0.338	0.384	0.298	0.33	0.319	0.932	1.1	0.982	0.948	0.801	1.19	1.09	0.801	1	0.659	0.911	0.512	0.603	0.227	0.707
NCI-H2228	0.719	0.683	0.465	0.411	0.226	0.393	0.362	0.488	0.318	0.327	1	1.17	0.731	0.717	0.22	0.668	1.07	0.272	0.142	0.577
NCI-H2347	0.43	0.479	0.459	0.359	0.338	0.707	0.677	0.744	0.362	0.515	1.06	1.32	0.716	0.572	0.515	0.646	0.475	0.382	0.432	0.412
NCI-H2405	0.424	0.502	0.544	0.346	0.323	0.695	0.8	0.713	0.45	0.372	0.987	1.05	0.753	0.531	0.746	1.12	0.765	0.742	0.27	1.11
NCI-H3122	0.198	0.186	0.18	0.132	0.148	0.253	0.271	0.305	0.214	0.253	1.04	0.986	1.04	0.816	0.47	1.11	0.598	0.66	0.224	1.04
PC-3 [JPC-3]	0.487	0.596	0.525	0.53	0.488	0.811	1	0.872	0.689	0.485	0.795	0.756	0.93	0.775	0.67	1.09	0.69	0.694	0.518	0.796
PC-14	0.193	0.174	0.127	0.0449	0.0437	0.578	0.516	0.259	0.105	0.0849	0.9	1.08	0.918	0.687	0.666	0.89	0.558	0.495	0.234	0.762
RERF-LC-KJ	0.678	0.537	0.444	0.185	0.18	0.541	0.513	0.421	0.23	0.197	1.04	1.2	0.986	1.03	0.923	0.728	0.5	0.621	0.412	0.624
SK-LU-1	0.356	0.461	0.35	0.312	0.332	0.816	1.11	0.797	0.446	0.428	1.44	1.11	0.765	0.515	0.272	0.671	0.638	0.273	0.249	0.696
SW 1573	0.277	0.3	0.265	0.144	0.167	0.713	0.604	0.711	0.402	0.227	1	0.977	0.608	0.449	0.186	0.625	0.359	0.228	0.142	0.646
